Here are results for five compounds from patent US20160318938A1, “CRYSTALS (2) OF PYRAZINO[2,1-c][1,2,4]TRIAZINE COMPOUND” (PRISM PHARMA CO., LTD., priority 2013, published 2016).

SMILES strings stand for the structures. Entries after “also recorded” stand apart in the source; their conditions may differ.

Common to all, as to type: physicochemical
Data set [1] is described as follows: Hygroscopicity evaluation by dynamic water adsorption measuring apparatus. To be noted: 25° C.; for hygroscopicity: 5-95% RH; for variation in the mass (weight) with increasing relative humidity: 5-95% RH stepwise. Here is the method:
The hygroscopicity of Examples 1, 3 and Comparative Example 1 was evaluated by a dynamic water adsorption measuring apparatus. A sample mounting part of the apparatus was maintained at 25° C., and the relative humidity (RH) was set stepwisely within the range of 5-95% RH. The humidity was controlled by changing the relative flow of 0% RH dry nitrogen and 100% RH humidified nitrogen. The sample weight was confirmed at 2 min intervals by a micro balance, and the humidity was sequentially changed at the time point when the weight shift range for 5 min was below 0.01%.

A short description of data set [2]: Relationship between water content of solvent and crystal form (heptane/ethanol 16:3). To be noted: for crystal form: overnight. The method, then:
To a saturated solution of crystal C in a mixed solvent of heptane and ethanol (volume ratio 16:3) were added crystal C (100 mg) and crystal D (100 mg) at a temperature shown in Table 2, water in the amount shown in Table 6 was further added, and the mixture was stood overnight. The water content of the solution after the standing was measured by the Karl Fischer method, and the crystal form of compound 1 was measured by powder X-ray diffraction. The amount of the water added is shown in mass % relative to the mass of the whole solvent.

Data set [3] can be described thus: Stability evaluation of crystals A, B and C (mixture of equal amounts in supersaturated solution). As to conditions: for relative stability among crystals A, B and C: room temperature or 40° C.; for form of the crystal obtained: equal amounts of crystals A, B and C, one day. Here is the method: To a supersaturated solution of compound 1 using the solvents shown in Table 8 was added a mixture of equal amounts of crystals A, B and C at room temperature or 40° C., and the form of the crystal obtained one day later was observed using powder X-ray diffraction.

A short description of data set [4]: Thermal stability of crystals A and D (oven heating overnight, powder X-ray diffraction). As to conditions: for crystal form after heating: oven, overnight. Here is the method: Crystals A and D were heated in an oven at 50° C. or 70° C. overnight, and transition of each crystal was confirmed by powder X-ray diffraction.
The nature of data set [5]: Stability evaluation of crystal A: slurry in solvents, crystal form by powder X-ray diffraction and DSC. As to conditions: room temperature, 2 days. The method, then: Crystal A was added in excess to the solvents described in Table 1 to give a slurry, which was stood at room temperature for 2 days, and the crystal form thereof was measured using powder X-ray diffraction and differential scanning calorimeter (DSC).

[6] abbreviates: single crystal form in heptane/ethanol (16:3) with water content of less than 0.5%, stood overnight.

In the case of `C[C@H]1C2N(C(=O)CN(C)N2C(=O)NCc2ccccc2)[C@@H](Cc2ccc(O)cc2)C(=O)N1Cc1cccc2cccnc12` (stereo partly drawn) [crystal C, (6S,9S)—N-benzyl-6-(4-hydroxybenzyl)-2,9-dimethyl-4,7-dioxo-8-(quinolin-8-ylmethyl)octahydro-1H-pyrazino[2,1-c][1,2,4]triazine-1-carboxamide], the hygroscopicity result in data set [1] is “low”. Also, the “variation in the mass (weight) with increasing relative humidity” value in data set [1] (listed as Example 3) is “weight did not increase”. Further, the “transition of crystal form” value in data set [2] (setting [6]) is on record as “transition of crystal form did not occur; also recorded: not transited”; in data set [2] (single crystal form in heptane/ethanol (16:3) with water content of not less than 0.5%, left overnight) it was “transited to crystal D”. Further, the “relative stability among crystals A, B and C” value in data set [3] (isopropanol, isopropyl acetate, MTBE or ethyl acetate) is “most stable in other nonaqueous solvents”.
For the compound `C[C@H]1C2N(C(=O)CN(C)N2C(=O)NCc2ccccc2)[C@@H](Cc2ccc(O)cc2)C(=O)N1Cc1cccc2cccnc12` (stereo partly drawn) [Comparative Example 1, (6S,9S)—N-benzyl-6-(4-hydroxybenzyl)-2,9-dimethyl-4,7-dioxo-8-(quinolin-8-ylmethyl)octahydro-1H-pyrazino[2,1-c][1,2,4]triazine-1-carboxamide], the “variation in the mass (weight) with increasing relative humidity” value in data set [1] is on record as “weight increased along with an increase in the humidity”.
On to `C[C@H]1C2N(C(=O)CN(C)N2C(=O)NCc2ccccc2)[C@@H](Cc2ccc(O)cc2)C(=O)N1Cc1cccc2cccnc12` (stereo partly drawn) [crystal D, (6S,9S)—N-benzyl-6-(4-hydroxybenzyl)-2,9-dimethyl-4,7-dioxo-8-(quinolin-8-ylmethyl)octahydro-1H-pyrazino[2,1-c][1,2,4]triazine-1-carboxamide], for which the “transition of crystal form” value in data set [2] (setting [6]) is “transition to crystal C occurred; also recorded: transits to crystal C”. Also, the “crystal form after heating” value in data set [4] (50° C.) is on record as “A part of crystal D transits to an amorphous form; also recorded: mixture of crystal D”; in data set [4] (70° C.), “transits to an amorphous form”.
With `C[C@H]1C2N(C(=O)CN(C)N2C(=O)NCc2ccccc2)[C@@H](Cc2ccc(O)cc2)C(=O)N1Cc1cccc2cccnc12` (stereo partly drawn) [compound 1, (6S,9S)—N-benzyl-6-(4-hydroxybenzyl)-2,9-dimethyl-4,7-dioxo-8-(quinolin-8-ylmethyl)octahydro-1H-pyrazino[2,1-c][1,2,4]triazine-1-carboxamide], the crystal form result in data set [2] (crystal C + crystal D (100 mg each) in heptane/ethanol 16:3, 5° C., water added 0 mass %, water content 0.32%) is “crystal C”; in data set [2] (crystal C + crystal D (100 mg each) in heptane/ethanol 16:3, 5° C., water added 0.5 mass %, water content 0.93%), “crystal D”; in data set [2] (crystal C + crystal D (100 mg each) in heptane/ethanol 16:3, 5° C., water added 1.0 mass %, water content 1.56%), “crystal D”; in data set [2] (crystal C + crystal D (100 mg each) in heptane/ethanol 16:3, 40° C., water added 0 mass %, water content 0.33%) it was “crystal C”; in data set [2] (crystal C + crystal D (100 mg each) in heptane/ethanol 16:3, 40° C., water added 0.5 mass %, water content 0.94%) it was “crystal D”; in data set [2] (crystal C + crystal D (100 mg each) in heptane/ethanol 16:3, 40° C., water added 1.0 mass %, water content 1.55%), “crystal D”. The crystal form result in data set [2] (crystal C + crystal D (100 mg each) in heptane/ethanol 16:3, room temperature, water added 0 mass %, water content 0.33%) is “crystal C”; in data set [2] (crystal C + crystal D (100 mg each) in heptane/ethanol 16:3, room temperature, water added 0.5 mass %, water content 0.93%), “crystal D”; in data set [2] (crystal C + crystal D (100 mg each) in heptane/ethanol 16:3, room temperature, water added 1.0 mass %, water content 1.57%), “crystal D”. Further, the crystal form obtained entry in data set [2] (crystal C + crystal D in heptane/ethanol 16:3, amount of water further added exceeded 2 mass %) is recorded as “crystal A was obtained”; in data set [2] (crystal C + crystal D in heptane/ethanol 16:3, water content less than 0.5%), “crystal C was obtained”; in data set [2] (crystal C + crystal D in heptane/ethanol 16:3, water content not less than 0.5%), “crystal D was obtained”. The “form of the crystal obtained” value is recorded as “crystal C” in data set [3] (MTBE, 40° C.); “crystal C” in data set [3] (MTBE, room temperature); “crystal C” in data set [3] (ethyl acetate, 40° C.); “crystal C” in data set [3] (ethyl acetate, room temperature); “crystal C” in data set [3] (isopropanol, 40° C.); “crystal C” in data set [3] (isopropanol, room temperature). Also, the “form of the crystal obtained” value in data set [3] (isopropyl acetate, 40° C.) was “crystal C”; in data set [3] (isopropyl acetate, room temperature) it was “crystal C”; in data set [3] (water, 40° C.), “crystal A”; in data set [3] (water, room temperature), “crystal A”.
On to `C[C@H]1C2N(C(=O)CN(C)N2C(=O)NCc2ccccc2)[C@@H](Cc2ccc(O)cc2)C(=O)N1Cc1cccc2cccnc12` (stereo partly drawn) [crystal A, (6S,9S)—N-benzyl-6-(4-hydroxybenzyl)-2,9-dimethyl-4,7-dioxo-8-(quinolin-8-ylmethyl)octahydro-1H-pyrazino[2,1-c][1,2,4]triazine-1-carboxamide], for which, in data set [1], the hygroscopicity result is “low”. Also, the “variation in the mass (weight) with increasing relative humidity” value in data set [1] (listed as Example 1) is on record as “weight did not increase”. For the same compound, the crystal form entry is “transition did not occur; also recorded: crystal A” in data set [5] (crystal A slurry in MTBE); “transition did not occur; also recorded: crystal A” in data set [5] (crystal A slurry in acetonitrile); “transition to crystal C occurred gradually” in data set [5] (crystal A slurry in ethanol); “transition to crystal C occurred gradually” in data set [5] (crystal A slurry in ethyl acetate); “transition to crystal C occurred gradually” in data set [5] (crystal A slurry in isopropanol); “transition did not occur; also recorded: crystal A” in data set [5] (crystal A slurry in isopropyl acetate). The crystal form entry in data set [5] (crystal A slurry in methanol) is reported as “transition to crystal B occurred”; in data set [5] (crystal A slurry in methylethyl ketone) it was “transition did not occur; also recorded: crystal A”; in data set [5] (crystal A slurry in tetrahydrofuran) it was “transition to an amorphous form occurred”; in data set [5] (crystal A slurry in water), “transition did not occur; also recorded: crystal A”. Also, in data set [4] (crystal A versus crystal D, 50° C. overnight), the “relative stability to heat” value is listed as “more stable to heat than crystal D”. The “crystal form after heating” value in data set [4] (50° C.) is given as “did not show transition; also recorded: not transited; also recorded: crystal A”; in data set [4] (70° C.), “transits to an amorphous form”. Moreover, the “relative stability among crystals A, B and C” value in data set [3] (water) was “most stable in water”.
